pIC50: −log10 of the molar value. Like-named read-outs stand apart in the source and are kept apart here.
Assays:
[1] = biological target: C. elegans (N2) complex I (NADH:ubiquinone oxidoreductase) (Caenorhabditis elegans, UniProt P24887+Q93873+Q94360); experiment: biochemical; type: biochemical; conditions: for remaining activity at 0.0001 µM / remaining activity at 0.0005 µM / remaining activity at 0.001 µM / remaining activity at 0.0025 µM / remaining activity at 0.005 µM / remaining activity at 0.013 µM / remaining activity at 0.025 µM / remaining activity at 0.063 µM / remaining activity at 0.125 µM / remaining activity at 0.313 µM / remaining activity at 0.625 µM / remaining activity at 1.5 µM / remaining activity at 3 µM / remaining activity at 15 µM / remaining activity at 37.5 µM / remaining activity at 75 µM: wild-type C. elegans
Sequence of C. elegans (N2) complex I (NADH:ubiquinone oxidoreductase) (Q94360 17-199): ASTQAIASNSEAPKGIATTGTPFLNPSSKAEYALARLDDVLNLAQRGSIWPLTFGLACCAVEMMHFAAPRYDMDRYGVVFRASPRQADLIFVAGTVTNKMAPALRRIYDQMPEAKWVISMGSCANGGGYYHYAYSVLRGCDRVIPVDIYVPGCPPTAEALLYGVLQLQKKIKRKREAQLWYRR
Sequence of C. elegans (N2) complex I (NADH:ubiquinone oxidoreductase) (P24887 whole entry): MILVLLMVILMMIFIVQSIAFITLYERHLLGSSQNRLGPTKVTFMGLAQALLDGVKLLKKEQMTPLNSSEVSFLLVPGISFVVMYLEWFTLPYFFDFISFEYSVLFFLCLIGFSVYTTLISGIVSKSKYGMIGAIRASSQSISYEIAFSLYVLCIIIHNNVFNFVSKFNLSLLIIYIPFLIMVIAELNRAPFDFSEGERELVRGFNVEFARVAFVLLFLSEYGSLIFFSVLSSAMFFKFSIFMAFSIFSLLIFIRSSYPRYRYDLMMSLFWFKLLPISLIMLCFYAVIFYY
Sequence of C. elegans (N2) complex I (NADH:ubiquinone oxidoreductase) (Q93873 31-482): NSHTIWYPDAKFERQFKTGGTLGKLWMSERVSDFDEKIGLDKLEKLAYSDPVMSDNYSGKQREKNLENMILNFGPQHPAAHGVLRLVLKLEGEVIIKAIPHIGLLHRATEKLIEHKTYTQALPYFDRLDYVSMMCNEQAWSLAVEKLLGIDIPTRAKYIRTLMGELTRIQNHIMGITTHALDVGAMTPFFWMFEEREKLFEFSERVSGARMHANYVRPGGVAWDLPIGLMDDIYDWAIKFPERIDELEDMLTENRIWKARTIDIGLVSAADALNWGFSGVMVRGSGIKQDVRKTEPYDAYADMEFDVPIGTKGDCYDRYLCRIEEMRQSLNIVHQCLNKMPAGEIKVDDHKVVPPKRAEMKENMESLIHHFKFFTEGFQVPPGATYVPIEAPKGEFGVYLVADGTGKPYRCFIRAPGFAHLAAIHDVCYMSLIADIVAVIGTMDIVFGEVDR
How it was run: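 Complex I rate: initial linear slope of A600 over 15 min, expressed as percent of solvent control. Triple freeze-thawed mitochondria (0.2 mg/mL) in KPi pH 7.5, BSA 3 mg/mL, NADH 80 μM, decylubiquinone 60 μM, DCIP 160 μM, antimycin A, KCN.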

[2] = biological target: B. taurus (heart) complex I (Bos taurus, UniProt P03887+P17694+P42026); experiment: biochemical; type: biochemical; conditions: for pIC50: read-out: B. taurus Complex I IC50
Sequence of B. taurus (heart) complex I (P03887 whole entry): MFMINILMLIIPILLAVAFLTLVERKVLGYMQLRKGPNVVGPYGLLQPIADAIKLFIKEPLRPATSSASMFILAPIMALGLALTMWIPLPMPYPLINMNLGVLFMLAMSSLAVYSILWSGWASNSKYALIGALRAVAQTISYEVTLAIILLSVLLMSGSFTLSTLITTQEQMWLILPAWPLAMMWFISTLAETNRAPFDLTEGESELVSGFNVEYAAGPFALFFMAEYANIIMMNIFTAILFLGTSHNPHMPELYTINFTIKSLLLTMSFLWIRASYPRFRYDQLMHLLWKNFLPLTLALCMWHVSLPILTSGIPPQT
Sequence of B. taurus (heart) complex I (P17694 34-463): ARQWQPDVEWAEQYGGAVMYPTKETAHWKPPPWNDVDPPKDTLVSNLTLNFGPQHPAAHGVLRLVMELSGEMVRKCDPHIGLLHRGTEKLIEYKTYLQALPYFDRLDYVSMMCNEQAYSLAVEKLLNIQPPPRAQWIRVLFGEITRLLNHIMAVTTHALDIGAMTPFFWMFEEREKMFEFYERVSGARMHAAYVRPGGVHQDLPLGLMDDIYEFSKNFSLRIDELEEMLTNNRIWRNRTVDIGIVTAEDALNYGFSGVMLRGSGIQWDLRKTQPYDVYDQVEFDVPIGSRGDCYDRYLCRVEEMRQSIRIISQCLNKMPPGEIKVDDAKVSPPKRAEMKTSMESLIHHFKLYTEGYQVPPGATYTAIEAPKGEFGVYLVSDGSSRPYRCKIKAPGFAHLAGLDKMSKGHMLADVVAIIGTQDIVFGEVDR
Sequence of B. taurus (heart) complex I (P42026 38-216): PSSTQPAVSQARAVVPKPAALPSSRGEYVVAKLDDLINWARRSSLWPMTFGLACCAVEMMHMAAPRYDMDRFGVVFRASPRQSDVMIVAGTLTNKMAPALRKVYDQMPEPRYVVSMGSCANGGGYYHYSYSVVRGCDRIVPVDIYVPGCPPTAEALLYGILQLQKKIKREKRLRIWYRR
How it was run: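 Complex I activity followed as DCIP reduction (600 nm, 30 s reads, 15 min) with 80 μM NADH and 60 μM decylubiquinone in 25 mM KPi pH 7.5 containing 2 μM antimycin A and 2 mM KCN. Freeze-thawed mouse or bovine heart mitochondria at 0.2 mg/mL; initial-rate percent of solvent control, single-point 100 μM or dose-response.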

CC(C)(C)c1ccc(CCOc2ncnc3ccccc23)cc1 [Fenazaquin, reference compound]
remaining activity at 0.0001 µM ([1]; dose 0.0001 µM, mean of replicates, read-out: in vitro complex I activity relative to solvent control, Mean): 94.3%
remaining activity at 0.0005 µM ([1]; dose 0.0005 µM, mean of replicates, read-out: in vitro complex I activity relative to solvent control, Mean): 89.7%
remaining activity at 0.001 µM ([1]; dose 0.001 µM, mean of replicates, read-out: in vitro complex I activity relative to solvent control, Mean): 82.5%
remaining activity at 0.001 µM ([1]; dose 0.001 µM, single replicate, read-out: in vitro complex I activity relative to solvent control, individual replicate): 80.4%
remaining activity at 0.0025 µM ([1]; dose 0.0025 µM, mean of replicates, read-out: in vitro complex I activity relative to solvent control, Mean): 63.3%
remaining activity at 0.0025 µM ([1]; dose 0.0025 µM, single replicate, read-out: in vitro complex I activity relative to solvent control, individual replicate): 63.7%
remaining activity at 0.005 µM ([1]; dose 0.005 µM, mean of replicates, read-out: in vitro complex I activity relative to solvent control, Mean): 42.1%
remaining activity at 0.005 µM ([1]; dose 0.005 µM, single replicate, read-out: in vitro complex I activity relative to solvent control, individual replicate): 42.3%
remaining activity at 0.013 µM ([1]; dose 0.013 µM, mean of replicates, read-out: in vitro complex I activity relative to solvent control, Mean): 24%
remaining activity at 0.013 µM ([1]; dose 0.013 µM, single replicate, read-out: in vitro complex I activity relative to solvent control, individual replicate): 25.6%
remaining activity at 0.025 µM ([1]; dose 0.025 µM, mean of replicates, read-out: in vitro complex I activity relative to solvent control, Mean): 12.5%
remaining activity at 0.063 µM ([1]; dose 0.063 µM, mean of replicates, read-out: in vitro complex I activity relative to solvent control, Mean): 5.41%
remaining activity at 0.125 µM ([1]; dose 0.125 µM, mean of replicates, read-out: in vitro complex I activity relative to solvent control, Mean): 2.53%
remaining activity at 0.313 µM ([1]; dose 0.313 µM, mean of replicates, read-out: in vitro complex I activity relative to solvent control, Mean): 1.71%
remaining activity at 0.625 µM ([1]; dose 0.625 µM, mean of replicates, read-out: in vitro complex I activity relative to solvent control, Mean): 2.18%
remaining activity at 1.5 µM ([1]; dose 1.5 µM, mean of replicates, read-out: in vitro complex I activity relative to solvent control, Mean): 1.91%
remaining activity at 3 µM ([1]; dose 3 µM, mean of replicates, read-out: in vitro complex I activity relative to solvent control, Mean): 1.48%
remaining activity at 15 µM ([1]; dose 15 µM, mean of replicates, read-out: in vitro complex I activity relative to solvent control, Mean): 1.53%
remaining activity at 37.5 µM ([1]; dose 37.5 µM, mean of replicates, read-out: in vitro complex I activity relative to solvent control, Mean): 1.86%
remaining activity at 75 µM ([1]; dose 75 µM, mean of replicates, read-out: in vitro complex I activity relative to solvent control, Mean): 3.14%
pIC50 ([1]; wild-type (N2) mitochondria, read-out: C. elegans Complex I IC50): 8.38
pIC50 ([2]; heart mitochondria): 7.62

Clc1ccccc1OCCCCn1cnc2ccccc21 [Compound 7925804]
remaining activity at 0.0001 µM ([1]; 0.0001 µM, individual Rep1-Rep4, read-out: percent in vitro complex I activity relative to solvent control, single replicates): 106%
remaining activity at 0.0001 µM ([1]; 0.0001 µM, mean of Rep1-4, read-out: percent in vitro complex I activity relative to solvent control, Mean): 95.7%
remaining activity at 0.0005 µM ([1]; 0.0005 µM, individual Rep1-Rep4, read-out: percent in vitro complex I activity relative to solvent control, single replicates): 98.1%
remaining activity at 0.0005 µM ([1]; 0.0005 µM, mean of Rep1-4, read-out: percent in vitro complex I activity relative to solvent control, Mean): 95.4%
remaining activity at 0.001 µM ([1]; 0.001 µM, mean of Rep1-4, read-out: percent in vitro complex I activity relative to solvent control, Mean): 95.9%
remaining activity at 0.0025 µM ([1]; 0.0025 µM, individual Rep1-Rep4, read-out: percent in vitro complex I activity relative to solvent control, single replicates): 100%
remaining activity at 0.0025 µM ([1]; 0.0025 µM, mean of Rep1-4, read-out: percent in vitro complex I activity relative to solvent control, Mean): 100%
remaining activity at 0.005 µM ([1]; 0.005 µM, individual Rep1-Rep4, read-out: percent in vitro complex I activity relative to solvent control, single replicates): 93.7%
remaining activity at 0.005 µM ([1]; 0.005 µM, mean of Rep1-4, read-out: percent in vitro complex I activity relative to solvent control, Mean): 93.4%
remaining activity at 0.013 µM ([1]; 0.013 µM, individual Rep1-Rep4, read-out: percent in vitro complex I activity relative to solvent control, single replicates): 92.2%
remaining activity at 0.013 µM ([1]; 0.013 µM, mean of Rep1-4, read-out: percent in vitro complex I activity relative to solvent control, Mean): 96.2%
remaining activity at 0.025 µM ([1]; 0.025 µM, individual Rep1-Rep4, read-out: percent in vitro complex I activity relative to solvent control, single replicates): 86.9%
remaining activity at 0.025 µM ([1]; 0.025 µM, mean of Rep1-4, read-out: percent in vitro complex I activity relative to solvent control, Mean): 94.4%
remaining activity at 0.063 µM ([1]; 0.063 µM, individual Rep1-Rep4, read-out: percent in vitro complex I activity relative to solvent control, single replicates): 83.6%
remaining activity at 0.063 µM ([1]; 0.063 µM, mean of Rep1-4, read-out: percent in vitro complex I activity relative to solvent control, Mean): 81.6%
remaining activity at 0.125 µM ([1]; 0.125 µM, individual Rep1-Rep4, read-out: percent in vitro complex I activity relative to solvent control, single replicates): 65.6%
remaining activity at 0.125 µM ([1]; 0.125 µM, mean of Rep1-4, read-out: percent in vitro complex I activity relative to solvent control, Mean): 64.9%
remaining activity at 0.313 µM ([1]; 0.313 µM, individual Rep1-Rep4, read-out: percent in vitro complex I activity relative to solvent control, single replicates): 53.9%
remaining activity at 0.313 µM ([1]; 0.313 µM, mean of Rep1-4, read-out: percent in vitro complex I activity relative to solvent control, Mean): 47.4%
remaining activity at 0.625 µM ([1]; 0.625 µM, mean of Rep1-4, read-out: percent in vitro complex I activity relative to solvent control, Mean): 32.7%
remaining activity at 1.5 µM ([1]; 1.5 µM, mean of Rep1-4, read-out: percent in vitro complex I activity relative to solvent control, Mean): 15.5%
remaining activity at 3 µM ([1]; 3 µM, mean of Rep1-4, read-out: percent in vitro complex I activity relative to solvent control, Mean): 8.88%
remaining activity at 15 µM ([1]; 15 µM, mean of Rep1-4, read-out: percent in vitro complex I activity relative to solvent control, Mean): 2.59%
remaining activity at 37.5 µM ([1]; 37.5 µM, mean of Rep1-4, read-out: percent in vitro complex I activity relative to solvent control, Mean): 2.95%
remaining activity at 75 µM ([1]; 75 µM, mean of Rep1-4, read-out: percent in vitro complex I activity relative to solvent control, Mean): 6.38%
activity at 0.0001 µM ([1]; Dose 0.0001 µM, read-out: C. elegans mitochondrial complex I activity): 95.7%
activity at 0.0005 µM ([1]; Dose 0.0005 µM, read-out: C. elegans mitochondrial complex I activity): 95.4%
activity at 0.001 µM ([1]; Dose 0.001 µM, read-out: C. elegans mitochondrial complex I activity): 95.9%
activity at 0.0025 µM ([1]; Dose 0.0025 µM, read-out: C. elegans mitochondrial complex I activity): 100%
activity at 0.005 µM ([1]; Dose 0.005 µM, read-out: C. elegans mitochondrial complex I activity): 93.4%
activity at 0.013 µM ([1]; Dose 0.013 µM, read-out: C. elegans mitochondrial complex I activity): 96.2%
activity at 0.025 µM ([1]; Dose 0.025 µM, read-out: C. elegans mitochondrial complex I activity): 94.4%
activity at 0.063 µM ([1]; Dose 0.063 µM, read-out: C. elegans mitochondrial complex I activity): 81.6%
activity at 0.125 µM ([1]; Dose 0.125 µM, read-out: C. elegans mitochondrial complex I activity): 64.9%
activity at 0.313 µM ([1]; Dose 0.313 µM, read-out: C. elegans mitochondrial complex I activity): 47.4%
activity at 0.625 µM ([1]; Dose 0.625 µM, read-out: C. elegans mitochondrial complex I activity): 32.7%
activity at 1.5 µM ([1]; Dose 1.5 µM, read-out: C. elegans mitochondrial complex I activity): 15.5%
activity at 3 µM ([1]; Dose 3 µM, read-out: C. elegans mitochondrial complex I activity): 8.88%
activity at 15 µM ([1]; Dose 15 µM, read-out: C. elegans mitochondrial complex I activity): 2.59%
activity at 37.5 µM ([1]; Dose 37.5 µM, read-out: C. elegans mitochondrial complex I activity): 2.95%
activity at 75 µM ([1]; Dose 75 µM, read-out: C. elegans mitochondrial complex I activity): 6.38%
pIC50 ([1]; in vitro complex I dose response on C. elegans mitochondria, average of at least two biological replicates, fit in R (DRC), read-out: IC50 C. elegans complex I): 6.57
Log IC50 C. elegans complex I ([1]; log10 of IC50 in µM, C. elegans mitochondria): -0.57 µM
pIC50 ([1]; wild-type C. elegans mitochondria, estimated from fitted dose-response curves, read-out: C. elegans Complex I IC50): 6.57
pIC50 ([2]; B. taurus heart mitochondria, estimated from fitted dose-response curves): 5.87
activity at 0.0001 µM ([2]; Dose 0.0001 µM, read-out: B. taurus mitochondrial complex I activity): 106%
activity at 0.0005 µM ([2]; Dose 0.0005 µM, read-out: B. taurus mitochondrial complex I activity): 116%
activity at 0.001 µM ([2]; Dose 0.001 µM, read-out: B. taurus mitochondrial complex I activity): 117%
activity at 0.0025 µM ([2]; Dose 0.0025 µM, read-out: B. taurus mitochondrial complex I activity): 118%
activity at 0.005 µM ([2]; Dose 0.005 µM, read-out: B. taurus mitochondrial complex I activity): 118%
activity at 0.013 µM ([2]; Dose 0.013 µM, read-out: B. taurus mitochondrial complex I activity): 117%
activity at 0.025 µM ([2]; Dose 0.025 µM, read-out: B. taurus mitochondrial complex I activity): 116%
activity at 0.063 µM ([2]; Dose 0.063 µM, read-out: B. taurus mitochondrial complex I activity): 111%
activity at 0.125 µM ([2]; Dose 0.125 µM, read-out: B. taurus mitochondrial complex I activity): 99.3%
activity at 0.313 µM ([2]; Dose 0.313 µM, read-out: B. taurus mitochondrial complex I activity): 90.5%
activity at 0.625 µM ([2]; Dose 0.625 µM, read-out: B. taurus mitochondrial complex I activity): 75.5%
activity at 1.5 µM ([2]; Dose 1.5 µM, read-out: B. taurus mitochondrial complex I activity): 54.8%
activity at 3 µM ([2]; Dose 3 µM, read-out: B. taurus mitochondrial complex I activity): 39.2%
activity at 15 µM ([2]; Dose 15 µM, read-out: B. taurus mitochondrial complex I activity): 9.9%
activity at 37.5 µM ([2]; Dose 37.5 µM, read-out: B. taurus mitochondrial complex I activity): 3.53%
activity at 75 µM ([2]; Dose 75 µM, read-out: B. taurus mitochondrial complex I activity): 2.37%
Log IC50 B. taurus complex I ([2]; log10 of IC50 in µM, B. taurus mitochondria): 0.13 µM
